Assay [1] has as its target other members of the PDE family (Homo sapiens, UniProt O00408). Put plainly: In vitro PDE selectivity assay (SPA), other members of the PDE family (protocols in Table A). The class given is biochemical. Particulars: hPDE2A; read-out: PDE 2A (expressed as pIC50) (converted). The gist of the method: (§1)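 Inhibition of each PDE isoform was measured by scintillation proximity assay with ³H-cyclic nucleotide substrate, using incubation buffer, substrate concentration, incubation time and stop solution adapted per isoform. Compounds were tested in dose-response against 1% DMSO controls and enzyme-free blanks. IC50 came from a least-squares fit of blank-subtracted % of control versus concentration.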

Assay [2] deals with other members of the PDE family (Homo sapiens, UniProt O76083). The assay is described as above. The class given is biochemical. Particulars: hPDE9A; read-out: PDE 9A (expressed as pIC50) (converted). In outline: as §1
Assay [3] has as its target other members of the PDE family (Homo sapiens, UniProt Q13946). The description is as above. It counts as biochemical. As to conditions: hPDE7A1; read-out: PDE 7A (expressed as pIC50) (converted). The gist of the method:
as §1

The target of assay [4] is other members of the PDE family (Homo sapiens, UniProt Q14432). Described as above. It counts as biochemical. Particulars: hPDE3A; read-out: PDE 3A (expressed as pIC50) (converted). In outline: as §1
Assay [5] addresses other members of the PDE family (Homo sapiens, UniProt Q9HCR9). The assay is described as above. As to conditions: hPDE11A4; read-out: PDE 11A4 (expressed as pIC50) (converted). It counts as biochemical. In outline:
as §1

The subject of assay [6] is apomorphine-induced stereotypy in rats. Description: Apomorphine-induced stereotypy in rats (APO). The class given is in vivo. As to conditions: Rattus norvegicus; dose at which 50% of the tested animals show the effect; ≧: active in 30% of the animals at the indicated dose; ≦: active in 60%. As to the method:
Apomorphine (1.0 mg/kg, i.v.)-induced stereotypy (compulsive sniffing, licking, chewing) was scored every 5 min over the first hour after injection of apomorphine, following a 1 hour interval pre-treatment with the test compound. The score system was: (3) pronounced, (2) moderate, (1) slight, and (0) absent.

Assay [7] deals with conditioned avoidance response in rats. Description: Conditioned avoidance response (CAR) test. The class given is in vivo. As to conditions: Rattus norvegicus. From the text: The apparatus consisted of an inner box surrounded by an outer box. The inner box was composed of four walls of transparent, synthetic material (length×width×height: 30×30×30 cm), an open top, and a grid floor made of 15 pairs of iron bars (2 mm diameter; 6 mm inter-bar distance). Odd and even bars were connected with a source of alternative current (1.0 mA; Coulbourn Instruments Solid State Shocker/Distributor), which could be interrupted by a switch. The outer box was composed of the same material (length×width×height: 40×40×36 cm), also with an open top, with a distance of 5 cm between the inner and outer box on all sides. To decrease the amount of environmental stimuli, three walls of the outer box were made non-transparent. The front wall was left transparent to allow the necessary inspection of the animal during the test. The upper edge of the outer and inner box served as a target for the rats on which to jump with fore- and hind-paws, respectively.
From their arrival in the laboratory on the experimental day, male Wiga Wistar rats (230±30 g) were housed in individual cages provided with bedding material.
The rats were tested 3 times, i.e. at 60, 90 and 120 min after the injection of test compound or solvent. Latency to avoidance was recorded. The median avoidance response obtained over the three experimental sessions for each rat were used for further calculations.

Sequence of other members of the PDE family (Homo sapiens, UniProt O00408) (O00408 whole entry, canonical isoform): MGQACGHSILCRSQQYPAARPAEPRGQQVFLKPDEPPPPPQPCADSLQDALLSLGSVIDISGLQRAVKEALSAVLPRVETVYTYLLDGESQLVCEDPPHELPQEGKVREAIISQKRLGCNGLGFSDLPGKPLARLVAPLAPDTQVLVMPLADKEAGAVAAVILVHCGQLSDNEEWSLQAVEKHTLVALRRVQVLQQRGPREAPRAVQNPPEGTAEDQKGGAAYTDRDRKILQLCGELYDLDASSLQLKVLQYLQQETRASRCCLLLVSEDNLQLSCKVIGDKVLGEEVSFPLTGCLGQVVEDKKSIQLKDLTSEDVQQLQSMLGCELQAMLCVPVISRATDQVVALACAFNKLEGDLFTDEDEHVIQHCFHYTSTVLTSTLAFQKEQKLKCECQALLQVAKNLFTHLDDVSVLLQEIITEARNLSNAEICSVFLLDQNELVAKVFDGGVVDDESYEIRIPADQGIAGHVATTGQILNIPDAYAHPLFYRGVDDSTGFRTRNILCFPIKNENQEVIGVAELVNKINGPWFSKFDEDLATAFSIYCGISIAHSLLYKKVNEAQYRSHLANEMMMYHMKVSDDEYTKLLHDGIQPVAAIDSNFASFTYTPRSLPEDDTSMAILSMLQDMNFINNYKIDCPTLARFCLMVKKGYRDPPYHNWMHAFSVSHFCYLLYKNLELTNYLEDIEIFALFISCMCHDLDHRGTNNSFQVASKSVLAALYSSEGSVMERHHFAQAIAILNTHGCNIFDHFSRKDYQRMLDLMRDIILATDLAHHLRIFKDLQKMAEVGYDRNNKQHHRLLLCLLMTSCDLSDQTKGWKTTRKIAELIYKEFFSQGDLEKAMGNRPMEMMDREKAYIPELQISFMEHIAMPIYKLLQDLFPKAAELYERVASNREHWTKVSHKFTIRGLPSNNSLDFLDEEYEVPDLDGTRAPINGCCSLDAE
Sequence of other members of the PDE family (Homo sapiens, UniProt Q13946) (Q13946 whole entry): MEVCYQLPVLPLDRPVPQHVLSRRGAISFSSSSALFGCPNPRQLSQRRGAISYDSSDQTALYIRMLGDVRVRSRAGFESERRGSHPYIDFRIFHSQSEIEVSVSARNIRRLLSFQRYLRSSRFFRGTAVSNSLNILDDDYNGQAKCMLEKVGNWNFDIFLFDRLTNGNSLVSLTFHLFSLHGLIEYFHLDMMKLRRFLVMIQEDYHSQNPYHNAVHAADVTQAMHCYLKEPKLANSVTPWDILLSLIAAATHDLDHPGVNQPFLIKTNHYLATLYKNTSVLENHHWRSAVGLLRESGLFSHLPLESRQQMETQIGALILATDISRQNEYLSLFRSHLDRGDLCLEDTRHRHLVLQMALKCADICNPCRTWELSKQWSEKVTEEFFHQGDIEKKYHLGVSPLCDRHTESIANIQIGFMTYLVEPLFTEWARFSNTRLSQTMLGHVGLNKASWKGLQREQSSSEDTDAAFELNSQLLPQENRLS
Sequence of other members of the PDE family (Homo sapiens, UniProt Q14432) (Q14432 whole entry): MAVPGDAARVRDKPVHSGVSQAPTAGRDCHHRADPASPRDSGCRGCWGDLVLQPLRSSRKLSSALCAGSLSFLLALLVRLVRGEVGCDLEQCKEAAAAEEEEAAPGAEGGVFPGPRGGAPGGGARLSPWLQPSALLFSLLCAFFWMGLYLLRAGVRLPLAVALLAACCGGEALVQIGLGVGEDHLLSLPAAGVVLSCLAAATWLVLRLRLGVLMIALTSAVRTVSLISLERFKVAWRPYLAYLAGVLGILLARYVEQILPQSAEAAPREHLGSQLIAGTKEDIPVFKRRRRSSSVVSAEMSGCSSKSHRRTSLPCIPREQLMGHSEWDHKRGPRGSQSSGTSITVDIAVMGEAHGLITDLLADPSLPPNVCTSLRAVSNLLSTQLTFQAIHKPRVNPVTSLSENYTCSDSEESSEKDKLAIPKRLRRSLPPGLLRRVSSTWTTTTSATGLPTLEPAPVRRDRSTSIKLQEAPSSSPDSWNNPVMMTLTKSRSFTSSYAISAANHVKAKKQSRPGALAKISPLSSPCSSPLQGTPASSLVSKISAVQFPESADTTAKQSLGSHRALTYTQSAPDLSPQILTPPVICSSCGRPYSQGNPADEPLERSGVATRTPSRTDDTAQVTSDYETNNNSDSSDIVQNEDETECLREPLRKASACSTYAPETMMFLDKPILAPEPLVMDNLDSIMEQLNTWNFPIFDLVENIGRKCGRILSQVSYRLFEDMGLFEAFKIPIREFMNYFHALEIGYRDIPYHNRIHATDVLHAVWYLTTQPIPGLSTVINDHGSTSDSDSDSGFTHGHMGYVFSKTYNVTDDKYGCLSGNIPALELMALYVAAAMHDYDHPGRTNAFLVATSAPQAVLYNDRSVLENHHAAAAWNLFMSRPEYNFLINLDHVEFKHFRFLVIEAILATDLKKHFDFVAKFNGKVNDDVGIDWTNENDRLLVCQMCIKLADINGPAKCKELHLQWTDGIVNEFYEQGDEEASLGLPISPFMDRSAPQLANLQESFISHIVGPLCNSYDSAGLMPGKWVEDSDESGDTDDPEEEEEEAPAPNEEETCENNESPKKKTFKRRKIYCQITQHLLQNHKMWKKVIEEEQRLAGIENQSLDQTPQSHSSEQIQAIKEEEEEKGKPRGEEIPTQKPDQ
Sequence of other members of the PDE family (Homo sapiens, UniProt Q9HCR9) (Q9HCR9 whole entry): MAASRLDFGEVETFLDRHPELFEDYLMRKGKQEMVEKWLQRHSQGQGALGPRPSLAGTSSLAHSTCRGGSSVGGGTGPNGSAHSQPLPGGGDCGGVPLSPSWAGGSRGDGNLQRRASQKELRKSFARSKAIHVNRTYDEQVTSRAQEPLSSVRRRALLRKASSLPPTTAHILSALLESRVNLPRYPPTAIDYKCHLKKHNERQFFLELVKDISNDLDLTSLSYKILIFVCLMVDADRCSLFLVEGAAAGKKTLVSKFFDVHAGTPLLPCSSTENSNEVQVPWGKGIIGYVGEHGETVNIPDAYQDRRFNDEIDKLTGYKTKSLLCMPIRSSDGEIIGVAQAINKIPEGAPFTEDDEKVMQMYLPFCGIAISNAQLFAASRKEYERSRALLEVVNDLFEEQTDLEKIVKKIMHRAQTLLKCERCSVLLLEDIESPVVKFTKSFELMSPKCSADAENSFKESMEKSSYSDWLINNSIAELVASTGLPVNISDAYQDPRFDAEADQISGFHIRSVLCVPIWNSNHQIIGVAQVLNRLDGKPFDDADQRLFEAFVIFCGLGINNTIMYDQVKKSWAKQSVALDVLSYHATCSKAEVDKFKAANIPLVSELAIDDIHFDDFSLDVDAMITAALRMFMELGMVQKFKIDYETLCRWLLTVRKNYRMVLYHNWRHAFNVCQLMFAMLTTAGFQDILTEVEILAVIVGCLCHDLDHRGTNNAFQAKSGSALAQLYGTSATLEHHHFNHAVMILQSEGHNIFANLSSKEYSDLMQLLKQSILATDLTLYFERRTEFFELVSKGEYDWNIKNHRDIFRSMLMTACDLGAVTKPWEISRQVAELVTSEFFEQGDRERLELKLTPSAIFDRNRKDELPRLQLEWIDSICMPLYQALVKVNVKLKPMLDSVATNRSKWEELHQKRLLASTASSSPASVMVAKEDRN
Sequence of other members of the PDE family (Homo sapiens, UniProt O76083) (O76083 whole entry): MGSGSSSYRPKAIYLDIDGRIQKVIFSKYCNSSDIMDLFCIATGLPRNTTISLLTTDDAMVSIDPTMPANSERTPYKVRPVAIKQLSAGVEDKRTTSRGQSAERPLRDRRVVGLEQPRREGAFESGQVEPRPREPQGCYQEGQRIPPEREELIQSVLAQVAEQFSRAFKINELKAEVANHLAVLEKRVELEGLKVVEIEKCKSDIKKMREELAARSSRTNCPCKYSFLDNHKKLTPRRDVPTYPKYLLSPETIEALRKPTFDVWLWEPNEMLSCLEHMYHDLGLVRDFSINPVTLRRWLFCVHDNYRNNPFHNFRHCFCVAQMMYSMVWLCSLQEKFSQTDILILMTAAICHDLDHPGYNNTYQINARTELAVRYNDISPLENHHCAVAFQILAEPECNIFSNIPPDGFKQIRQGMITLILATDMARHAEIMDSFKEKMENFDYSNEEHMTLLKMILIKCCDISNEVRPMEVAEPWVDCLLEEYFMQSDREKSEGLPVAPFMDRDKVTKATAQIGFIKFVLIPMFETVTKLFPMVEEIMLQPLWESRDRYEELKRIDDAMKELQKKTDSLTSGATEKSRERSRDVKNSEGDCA

Consider `COCCc1ccc(-c2c(C)nc3c(N4CCOCC4)ccnn23)cn1` [compound 1, 3-[6-(2-methoxyethyl)-3-pyridinyl]-2-methyl-8-(4-morpholinyl)-imidazo[1,2-b]pyridazine], for which the IC50 was 39.8 µM in assay [1]; > 100 µM in assay [2]; 69.2 µM in assay [3]; 97.7 µM in assay [4]; 74.1 µM in assay [5]. Moreover, the figures for the ED50 in assay [6] and in assay [7] were 1.3 mg/kg and 4.7 mg/kg, respectively.

In the case of `COCCOc1ccc(-c2c(C)nc3c(-c4ccncc4)ccnn23)cn1` [compound 21, 3-[6-(2-methoxyethoxy)-3-pyridinyl]-2-methyl-8-(4-pyridinyl)-imidazo[1,2-b]pyridazine], the IC50 is 47.9 µM in assay [1]; > 50.1 µM in assay [2]; > 50.1 µM in assay [3]; > 50.1 µM in assay [4]; > 50.1 µM in assay [5]. Also, the ED50 amounted to 1.5 mg/kg in assay [6] and 5.4 mg/kg in assay [7].

In general, ED50 refers to the dose at which the effect has come halfway, by size or by number of responders. A low value points to an effect at a small dose.

Source of the values: US20120220581A1, “IMIDAZO[1,2-b]PYRIDAZINE DERIVATIVES AND THEIR USE AS PDE10 INHIBITORS” (Janssen-Cilag, S.A., priority 2009, published 2012).
